Test results published in patent publication US11690824B2, “Antibacterial compounds” (THE GENERAL HOSPITAL CORPORATION, priority 2018, dated 2023).
In brackets after ≈: the same amount, converted by molar mass. Like-named read-outs stand apart in the source and are kept apart here.

Legend:
S. aureus (MRSA) MW2 = test: Minimal inhibitory concentration (MIC) assay, micro-dilution; type: cell-based; conditions: for MIC: Example 5, MRSA MW2
Description: Bacterial strains, growth conditions, and persister isolation. Methicillin-resistant S. aureus strains, MW2 BAA-1707, ATCC 33591, and JE2, methicillin-susceptible S. aureus strains, NCTC 8325, Newman, and ATCC 29213, vancomycin-resistant S. aureus strain, VRS1, Enterococcus faecium E007, vancomycin-resistant E. faecium strains, C68,^7 WB312, and WC196, Klebsiella pneumoniae WGLW2 (BEI Resources, Manassas, Va., USA), Acinetobacter baumannii ATCC 17978, Pseudomonas aeruginosa PA14, and Enterobacter aerogenes ATCC 13048 were used to test antimicrobial activity (Table 1). S. aureus strains were grown in tryptic soy broth (TSB) (BD, Franklin Lakes, N.J., USA), and E. faecium was grown in brain-heart infusion (BHI) broth (BD, Franklin Lakes, N.J., USA) at 37° C. K. pneumoniae, A. baumannii, P. aeruginosa, and E. aerogenes were grown in Luria Bertani (LB) broth (BD, Franklin Lakes, N.J., USA) at 37° C.
Minimal inhibitory concentration (MIC) assay. The MICS of antibiotics were determined by the standard micro-dilution method recommended by the Clinical and Laboratory Standards Institute. MIC assays were conducted in biological triplicate.

HKC-8 = test: Cytotoxicity (WST-1); type: cell-based; conditions: 32 μg/ml
Protocol: (§1) Cytotoxicity. […] HepG2 and HKC-8 cells were grown in Dulbecco's modified Eagle F-12 media mixed 1:1 with Ham's F-12 (DMEM/F-12, Life Technologies, Carlsbad, Calif., USA) supplemented with 10% FBS and 4 mM L-glutamine at 37° C. in 5% CO2. For cytotoxicity assays, HepG2 or HKC-8 was cultured in 96-well plates in 100 μL/well of the proper media to reach 70-80% confluence. The cells were then treated with a range of concentrations of nTZDpa or its analogs for 72 h. 10 μL of WST-1 (Roche, Mannheim, Germany) was added per well for the last 4 h of the 72 h period. WST-1 reduction was measured at absorbance 450 nm. The percent […] relative to that of the no-treatment control was calculated. The assay was carried out in biological triplicate.

HepG2 = test: Cytotoxicity (WST-1); type: cell-based; conditions: 32 μg/ml
Protocol: as §1

human erythrocytes = test: Human blood hemolysis; type: cell-based; conditions: 32 μg/ml
Protocol: Human blood hemolysis. Hemolytic activity was evaluated as described in a previous study. Briefly, 100 μL of 4% human erythrocytes (Rockland Immunochemicals, Limerick, Pa., USA) was added to 100 μL of 2-fold serial dilutions of compounds in PBS, 0.2% DMSO (negative control), or 2% Triton-X 100 (positive control) in a 96-well plate. The 96-well plate was incubated at 37° C. for 1 h and then centrifuged at 500× g for 5 min. 50 μL of the supernatant was transferred to a fresh 96-well plate, and absorbance of supernatants was measured at 540 nm. Percent hemolysis was calculated using the following equation: (A540 nm of compound treated sample−A540 nm of 0.1% DMSO treated sample)/(A540 nm of 1% Triton X-100 treated sample−A540 nm of 0.1% DMSO treated sample)×100. HC50 (concentration of a compound causing 50% hemolysis) was determined using SigmaPlot 10.0 (Systat Software Inc., San Jose, Calif., USA).

MRSA MW2 = test: SYTOX Green membrane permeability assay; type: cell-based, S. aureus
Protocol: SYTOX Green membrane permeability assay. […] The washed cells were adjusted to OD600=0.4 with PBS. SYTOX Green (Molecular Probes, Waltham, Mass., USA) was added to 10 mL of the diluted bacterial suspension to a final concentration of 5 μM and incubated for 30 min at room temperature in the dark. 50 μL of the bacteria/SYTOX Green suspension was mixed with 50 μl of PBS containing twice the desired concentrations of compounds in black, clear-bottom, 96-well plates (Corning no. 3904). Fluorescence was measured at room temperature using a spectrophotometer (SpectraMax M2, Molecular Devices), with excitation and emission wavelengths of 485 nm and 525 nm, respectively. All experiments were conducted in biological triplicate.

| MIC (S. aureus (MRSA) MW2) | MIC (S. aureus (MRSA) MW2; Staphylococcus aureus, read-out: MIC) [µg/mL] | Compound | cell death of HKC-8 (HKC-8) | cell death of HepG2 (HepG2) | hemolysis of human erythrocytes (human erythrocytes) | antibiotic activity / potency relative to nTZDpa (S. aureus (MRSA) MW2; growing S. aureus cells) | concentration inducing SYTOX Green fluorescence (MRSA MW2) [µg/mL] |
| --- | --- | --- | --- | --- | --- | --- | --- |
| same MIC | – | O=C(O)c1c(Sc2ccccc2)c2ccc(Cl)cc2n1Cc1ccc(Cl)cc1 [Analog 2a] | did not display a significant level of cytotoxicity | did not display a significant level of cytotoxicity | did not significantly cause hemolysis | – | – |
| – | 32 (≈ 91.4 µM) | COc1c(C(=O)O)n(Cc2ccc(Cl)cc2)c2ccc(Cl)cc12 [Compound S14, 5-chloro-1-(4-chlorobenzyl)-3-methoxy-1H-indole-2-carboxylic acid] | – | – | – | reduction of antibiotic activity | 64 |
